Test results as given in patent US11440907B1 (Merck Patent GmbH, priority 2018, dated 2022).

Key:
[1] = test system: XBP1(u)-luciferase splicing reporter in HepG2 hepatoma cells; experiment: HepG2 XBP1 reporter assay (XBP1(u)-Luc); type: cell-based; details: Homo sapiens, 6 h, six hours after addition of compound
[2] = test system: NCI-H929 (Multiple myeloma cells); experiment: Cell viability (ATPLite) in NCI-H929; type: cell-based; details: Homo sapiens, 96 hours
Protocol: Cells were removed from liquid nitrogen storage, thawed and expanded in appropriate growth media. Once expanded, cells were seeded in 384-well tissue culture treated plates at 500 cells per well. After 24 hours, cells were treated for either 0 hours or treated for 96 hours with a testing compound (at the concentrations of 100 nM and 2 uM). At the end of either 0 hours or 96 hours, cell status was analyzed using ATPLite (Perkin Elmer) to assess the biological response of cells to the testing compound.

IC50 [1] | IC50 [2] | SMILES
< 0.6 µM | < 1 µM | Cc1cc(N2CCCOC[C@@H]2c2cc(O)c(C)cc2Cl)nc(N)n1 [D-20]
< 0.6 µM | < 1 µM | CNc1cc(Cl)c([C@H]2COCCCN2c2cc(C)nc(N)n2)cc1C [D-26]
< 0.6 µM | < 1 µM | Cc1cc(N2CCCOC[C@@H]2c2cc3c(cc2Cl)CCN3C)nc(N)n1 [D-28]
< 0.6 µM | ≥ 25 µM | Cc1cc(N2CCCOC[C@H]2c2ccc(N)cc2Cl)nc(N)n1 [D-29]
< 0.6 µM | < 1 µM | CCOC(=O)[C@]1(C)CNc2cc(Cl)c([C@H]3COCCCN3c3cc(C)nc(N)n3)cc2O1 [D-36]
0.6 to 2 µM | ≥ 25 µM | CCOC(=O)[C@@]1(C)CNc2cc(Cl)c([C@H]3COCCCN3c3cc(C)nc(N)n3)cc2O1 [D-37]
0.6 to 2 µM | 1 to 10 µM | COc1cc(N2CCCOCC2c2cc(C)nc(N)n2)c(Cl)cc1OCC(=O)Nc1ccccc1 [D-39]
< 0.6 µM | < 1 µM | Cc1cc(N2CCCOCC2c2ncc(CS(C)(=O)=O)cc2Cl)nc(N)n1 [D-40]
< 0.6 µM | < 1 µM | Cc1cc(N2CCCOCC2c2cc(CN)c(C)cc2Cl)nc(N)n1 [D-46]
< 0.6 µM | 1 to 10 µM | Cc1cc(N2CCCOCC2c2ccc(CS(C)(=O)=O)nc2OC(F)F)nc(N)n1 [D-54]
< 0.6 µM | < 1 µM | Cc1cc(N2CCCOCC2c2ccc(CS(C)(=O)=O)cc2Cl)nc(N)n1 [D-55]
< 0.6 µM | < 1 µM | Cc1cc(N2CCCOC[C@H]2c2ccc(NC(=O)C3(F)CCOC3)cc2Cl)nc(N)n1 (stereo partly drawn) [D-58]
< 0.6 µM | 1 to 10 µM | Cc1cc(N2CCCOCC2c2ccc(C3CCNCC3)cc2Cl)nc(N)n1 [D-61]
< 0.6 µM | < 1 µM | CCc1cc(N2CCCOC[C@@H]2c2cc(O)c(OC)cc2Cl)nc(N)n1 [D-104]
< 0.6 µM | < 1 µM | CCc1cc(N2CCCOCC2c2cc(O)c(NC(C)=O)cc2Cl)nc(N)n1 [D-110]
< 0.6 µM | < 1 µM | Cc1cc(N2CCCOC[C@@H]2c2cc(O)c(OC(F)(F)F)cc2Cl)nc(N)n1 [D-119]
≥ 5 µM | 1 to 10 µM | Cc1cc(N2CCCOC[C@H]2c2ccc(S(=O)(=O)C3CCC3)cc2Cl)nc(N)n1 [D-141]
≥ 5 µM | < 1 µM | Cc1cc(N2CCCOC[C@H]2c2ccc(NC(=O)C(F)F)cc2Cl)nc(N)n1 [D-142]
≥ 5 µM | ≥ 25 µM | Cc1cc(N2CCCOC[C@H]2c2cc3c(cc2Cl)N(C)CC3)nc(N)n1 [D-144]
≥ 5 µM | ≥ 25 µM | Cc1cc(N2CCCOC[C@H]2c2ccc(CS(C)(=O)=O)cc2OC(F)F)nc(N)n1 [D-152]
≥ 5 µM | ≥ 25 µM | CCOc1cc([C@@H]2COCCCN2c2cc(C)nc(N)n2)c(Cl)cc1OC [D-153]
≥ 5 µM | ≥ 25 µM | CCOC(=O)[C@@]1(C)CNc2cc(Cl)c([C@@H]3COCCCN3c3cc(C)nc(N)n3)cc2O1 [D-157]

Further lines, the molecule ahead of its results:

SMILES | IC50 [1] | IC50 [2]
COc1cc(C2COCCCN2c2cc(C)nc(N)n2)c(Cl)cc1N1CCCC1 [D-17] | 0.6 to 2 µM | 1 to 10 µM
COc1cc(C2COCCCN2c2cc(C)nc(N)n2)c(Cl)cc1OCCCC#N [D-18] | 0.6 to 2 µM | 1 to 10 µM
COc1cc(C2COCCCN2c2cc(C)nc(N)n2)c(Cl)cc1N1CCOCC1 [D-19] | 0.6 to 2 µM | 1 to 10 µM
CCOc1cc(C2COCCCN2c2cc(C)nc(N)n2)c(Cl)cc1O [D-21] | < 0.6 µM | 1 to 10 µM
Cc1cc(N2CCCOC[C@@H]2c2ccc(CS(C)(=O)=O)cc2OC(F)F)nc(N)n1 [D-22] | < 0.6 µM | < 1 µM
Cc1cc(N2CCCOCC2c2cc(O)c(C(=O)O)cc2Cl)nc(N)n1 [D-23] | < 0.6 µM | ≥ 25 µM
COc1cc(C2COCCCN2c2cc(C)nc(N)n2)c(Cl)cc1OCC(=O)N1CCCCC1 [D-24] | < 0.6 µM | ≥ 25 µM
CNc1cc(Cl)c([C@@H]2COCCCN2c2cc(C)nc(N)n2)cc1C [D-25] | < 0.6 µM | ≥ 25 µM
Cc1cc(N2CCCOC[C@H]2c2cc3c(cc2Cl)CCN3C)nc(N)n1 [D-27] | < 0.6 µM | 10 to 25 µM
Cc1cc(N2CCCOC[C@@H]2c2ccc(N)cc2Cl)nc(N)n1 [D-30] | < 0.6 µM | < 1 µM
Cc1cc(N2CCCOC[C@@H]2c2cc3c(cc2Cl)OCC(C)(C)CO3)nc(N)n1 [D-31] | < 0.6 µM | < 1 µM
Cc1cc(N2CCCOCC2c2ccc(CS(C)(=O)=O)nc2F)nc(N)n1 [D-33] | 2 to 5 µM | ≥ 25 µM
CCOc1cc([C@H]2COCCCN2c2cc(C)nc(N)n2)c(Cl)cc1OC [D-34] | < 0.6 µM | < 1 µM
CCOC(=O)Cc1cc(C2COCCCN2c2cc(C)nc(C)n2)c(Cl)cc1C#N [D-35] | 2 to 5 µM | 10 to 25 µM
COc1cc([C@H]2COCCCN2c2cc(C)nc(N)n2)c(Cl)cc1OCC#N [D-38] | < 0.6 µM | < 1 µM
Cc1cc(N2CCCOC[C@@H]2c2ccc(CS(C)(=O)=O)cc2OC(F)(F)F)nc(N)n1 [D-41] | < 0.6 µM | < 1 µM
CCOC(=O)OCc1cc(Cl)c(C2COCCCN2c2cc(C)nc(N)n2)cc1OCC [D-42] | 0.6 to 2 µM | 1 to 10 µM
Cc1cc(N2CCCOCC2c2ncc(CS(C)(=O)=O)cc2F)nc(N)n1 [D-43] | 0.6 to 2 µM | 1 to 10 µM
Cc1cc(N2CCCOC[C@@H]2c2cc(N)c(OC(F)(F)F)cc2Cl)nc(N)n1 [D-45] | < 0.6 µM | < 1 µM
Cc1cc(N2CCCOCC2c2cnc(CS(C)(=O)=O)cc2Cl)nc(N)n1 [D-49] | < 0.6 µM | < 1 µM
Cc1cc(N2CCCOCC2c2cc(O)c(OC(F)F)cc2Cl)nc(N)n1 [D-50] | < 0.6 µM | < 1 µM
COc1ccc(C2COCCCN2c2cc(C)nc(N)n2)c(Cl)c1 [D-51] | < 0.6 µM | < 1 µM
CCc1cc(N2CCCOCC2c2ccc(CS(C)(=O)=O)cc2Cl)nc(N)n1 [D-52] | < 0.6 µM | < 1 µM

SMILES | IC50 [1] | IC50 [2]
Cc1cc(N2CCCOC[C@H]2c2cc(O)c(OC(F)F)cc2Cl)nc(N)n1 [D-56] | ≥ 5 µM | 10 to 25 µM
Cc1cc(N2CCCOC[C@@H]2c2cc(O)c(OC(F)F)cc2Cl)nc(N)n1 [D-57] | < 0.6 µM | < 1 µM
CCc1cc(N2CCCOC[C@@H]2c2ccc(CS(C)(=O)=O)cc2Cl)nc(N)n1 [D-59] | < 0.6 µM | < 1 µM
C#CCOc1cc(Cl)c(C2COCCCN2c2cc(C)nc(N)n2)cc1OC [D-60] | < 0.6 µM | 1 to 10 µM
Cc1cc(N2CCCOC[C@H]2c2cc(N3CC[C@H](O)C3)ccc2Cl)nc(N)n1 [D-63] | < 0.6 µM | < 1 µM
Cc1cc(N2CCCOC[C@@H]2c2cc(N3CC[C@H](O)C3)ccc2Cl)nc(N)n1 [D-64] | 0.6 to 2 µM | 1 to 10 µM
Cc1cc(N2CCCOCC2c2cc(O)c(CS(C)(=O)=O)cc2Cl)nc(N)n1 [D-65] | < 0.6 µM | < 1 µM
Cc1cc(N2CCCOC[C@H]2c2ccc(C3CCNCC3)cc2Cl)nc(N)n1 [D-68] | < 0.6 µM | < 1 µM
CCc1cc(N2CCCOCC2c2cc(O)c(OC)cc2Cl)nc(N)n1 [D-71] | < 0.6 µM | < 1 µM
COc1ccc([C@H]2COCCCN2c2cc(C)nc(N)n2)c(Cl)c1 [D-80] | < 0.6 µM | < 1 µM
Cc1cc(N2CCCOC[C@@H]2c2ncc(CS(C)(=O)=O)cc2Cl)nc(N)n1 [D-81] | < 0.6 µM | < 1 µM
Cc1cc(N2CCCOC[C@@H]2c2cc(O)c(CS(C)(=O)=O)cc2Cl)nc(N)n1 [D-86] | < 0.6 µM | < 1 µM
Cc1cc(N2CCCOCC2c2ccc(O)cc2C(F)(F)F)nc(N)n1 [D-111] | < 0.6 µM | < 1 µM
CNC(=O)[C@]1(C)CNc2cc(Cl)c([C@H]3COCCCN3c3cc(C)nc(N)n3)cc2O1 [D-116] | < 0.6 µM | < 1 µM
Cc1cc(N2CCCOC[C@@H]2c2cc(O)c(C(=O)N(C)C)cc2Cl)nc(N)n1 [D-117] | < 0.6 µM | < 1 µM
Cc1cc(N2CCCOC[C@H]2c2cc3c(cc2Cl)NCCC3)nc(N)n1 [D-143] | ≥ 5 µM | ≥ 25 µM
Cc1cc(N2CCCOC[C@H]2c2cc(N)c(C(F)(F)F)cc2Cl)nc(N)n1 [D-145] | ≥ 5 µM | ≥ 25 µM
Cc1cc(N2CCCOCC2c2ccc(CS(C)(=O)=O)[nH]c2=O)nc(N)n1 [D-146] | ≥ 5 µM | ≥ 25 µM
Cc1cc(N2CCCOC[C@H]2c2cc3c(cc2Cl)OCC(C)(C)CO3)nc(N)n1 [D-154] | ≥ 5 µM | ≥ 25 µM
CCOC(=O)[C@]1(C)CNc2cc(Cl)c([C@@H]3COCCCN3c3cc(C)nc(N)n3)cc2O1 [D-155] | ≥ 5 µM | ≥ 25 µM
Cc1cc(N2CCCOC[C@H]2c2ccc(OS(C)(=O)=O)cc2OC(F)(F)F)nc(N)n1 [D-158] | ≥ 5 µM | ≥ 25 µM
COc1cc([C@@H]2COCCCN2c2cc(C)nc(N)n2)c(Cl)cc1OCC#N [D-159] | ≥ 5 µM | ≥ 25 µM
